In ChEMBL document CHEMBL1159371, “Trisphaerolide A, a novel polyketide from the Dominican sponge Erylus trisphaerus” (J Nat Prod, 2003) one finds IC50 and Activity data, which are given here for one molecule.

As usually defined, the IC50 is the midpoint of a concentration-inhibition curve. A lower IC50 goes with greater potency.

In brackets after ≈: the same amount, converted by molar mass. Activity calls are given as the source filed them. The rule behind the calls is not given here.

Assay [1] concerns MCF7. The assay is described as follows: Cytotoxicity against human MCF7 cells. It counts as functional, cell-based.
The subject of assay [2] is MCF7. The assay is described as follows: Cell cycle arrest in human MCF7 cells by G2 checkpoint inhibition assay. It counts as functional, cell-based.

In the assay on MCF7 [1], `C[C@]1(O)CC(=O)O[C@](C)(CCCCCCCCC/C=C/Cc2ccccc2)C1` [TRISPHAEROLIDE A] returned an IC50 of 30 mg/L (≈ 77.6 µM). Further, the outcome in the assay on MCF7 [2] was inactive.
